From patent US7781460B2, “Substituted indazoles as inhibitors of phosphodiesterase type-IV” (Ranbaxy Laboratories Limited, priority 2005, dated 2010)

system: TNF-α release from LPS-stimulated human peripheral blood mononuclear cells; experiment: Cell based assay for TNF-α release (LPS stimulation of human PBMNC's); settings: PBMC; human PBMN cells, LPS 1 μg/ml, incubated overnight, ELISA; read-out: IC50, inhibition of TNF-α release
Procedure: Cell based Assay for TNF-α Release
Method of Isolation of Human Peripheral Blood Mononuclear Cells:
Human whole blood was collected in vacutainer tubes containing heparin or EDTA as an anti coagulant. The blood was diluted (1:1) in sterile phosphate buffered saline and 10 ml. was carefully layered over 5 ml Ficoll Hypaque gradient (density 1.077 g/ml) in a 15 ml conical centrifuge tube. The sample was centrifuged at 3000 rpm for 25 minutes in a swing-out rotor at room temperature. After centrifugation, interface of cells were collected, diluted at least 1:5 with PBS and washed three times by centrifugation at 2500 rpm for 10 minutes at room temperature. The cells were resuspended in serum free RPMI 1640 medium at a concentration of 2 million cells/ml. Alternatively whole blood was used.
LPS Stimulation of Human PBMNC's:
PBMN cells (0.1 ml; 2 million/ml) were co-incubated with 20 μl of compound (final DMSO concentration of 0.2%) for 10 min in a flat bottom 96 well microtiter plate. Compounds were dissolved in DMSO initially and diluted in medium for a final concentration of 0.2% DMSO. LPS (1 μg/ml, final concentration) was then added at a volume of 10 μl per well. After 30 min, 20 μl of fetal calf serum (final concentration of 10%) was added to each well. Cultures were incubated overnight at 37° C. in an atmosphere of 5% CO2 and 95% air. Supernatant were then removed and tested by ELISA for TNF-α release using a commercial kit (e.g. BD Biosciences). For whole blood, the plasma samples were diluted 1:20 for ELISA. The level of TNF-α in treated wells was compared with the vehicle treated controls and inhibitory potency of compound was expressed as IC50 values calculated by using Graph pad prism.

`Cc1nn(C2CCCC2)c2cc(C3=NOC(C)(C#N)C3)ccc12` (stereo not shown) [Compound 2, 3-(1-Cyclopentyl-3-methyl-1H-indazol-6-yl)-5-methyl-4,5-dihydroisoxazole-5-carbonitrile] and `CCc1nn(C2CCCC2)c2cc(C3=NOC(C)(C#N)C3)ccc12` (stereo not shown) [Compound 3, 3-(1-Cyclopentyl-3-ethyl-1H-indazol-6-yl)-5-methyl-4,5-dihydroisoxazole-5-carbonitrile] fall in the same range of IC50: 4.2 to 10 µM for the first, 4.2 to 10 µM for the second.

`Cc1nn(C2CCCC2)c2cc(C3=NOC(C)(c4nc(-c5cc(F)ccc5F)no4)C3)ccc12` (stereo not shown) [Compound 23, 1-Cyclopentyl-6-{5-[3-(2,5-difluorophenyl)-1,2,4-oxadiazol-5-yl]-5-methyl-4,5-dihydroisoxazol-3-yl}-3-methyl-1H-indazole] and `CCc1nn(C2CCCC2)c2cc(C3=NOC(C)(c4nc(-c5cc(F)ccc5F)no4)C3)ccc12` (stereo not shown) [Compound 32, 1-Cyclopentyl-6-{5-[3-(2,5-difluorophenyl)-1,2,4-oxadiazol-5-yl]-5-methyl-4,5-dihydroisoxazol-3-yl}-3-ethyl-1H-indazole] fall in the same range of IC50: 4.2 to 10 µM for the first, 4.2 to 10 µM for the second.

First: CCc1nn(C2CCCC2)c2cc(C3=NOC(C)(c4nc(-c5cc(Cl)ccc5Cl)no4)C3)ccc12 (stereo not shown) [Compound 31, 1-Cyclopentyl-6-{5-[3-(2,5-dichlorophenyl)-1,2,4-oxadiazol-5-yl]-5-methyl-4,5-dihydroisoxazol-3-yl}-3-ethyl-1H-indazole]
Second: COc1ccc(C2CNC(=O)C2)cc1OC1CCCC1 (stereo not shown) [rolipram, reference compound]
The IC50 of the first is higher: 4.2 to 10 µM for the first, 1.2 µM for the second. The second is the more potent here.

system: not given; experiment: not given; settings: not given

`CCc1nn(C2CCCC2)c2cc(C3=NOC(C)(c4noc(-c5ccc(Cl)cc5)n4)C3)ccc12` (stereo not shown) [Compound 11, 6-{5-[5-(4-Chlorophenyl)-1,2,4-oxadiazol-3-yl]-5-methyl-4,5-dihydroisoxazol-3-yl}-1-cyclopentyl-3-ethyl-1H-indazole] gave a melting point of 154 to 155 °C.
